According to the NIST ThermoML archive (doi:10.1021/je200673a):
Numbers after ± are expanded uncertainties.

Experiments:
[1] = Crystal; Adiabatic calorimetry
[2] = Molar enthalpy of transition or fusion; conditions: Crystal; Adiabatic calorimetry

Triple point temperature [1]: 332.02 ± 0.05 K
Molar enthalpy of transition or fusion [2]: 5.029 ± 0.0454 kcal/mol
SMILES: C(#Cc1ccccc1)c1ccccc1 [1,2-diphenylethyne]
